These results are taken from patent US20210054047A1, “NOVEL ANTICANCER FUSION PROTEIN AND USE THEREOF” (KOREA INSTITUTE OF SCIENCE AND TECHNOLOGY, priority 2018, published 2021).

The subject of data set [1] is HepG2 cells. The data set is described as follows: Cell viability, CCK-8 assay, HepG2. In kind it is cell-based, human. As to conditions: TRAIL-sensitive HepG2 cells, 24 hours (FIG. 17). As to the method: (§1) After culturing for 24 hours, cell viability was measured using a cell counting kit (CCK)-8 assay (Dojindo Molecular Technologies, Gaithersburg, Md.). The plate was then read with an absorbance microplate reader (Spectramax 340, Molecular Devices Corporation) at a wavelength of 450 nm and 50% effective by regression analysis using SigmaPlot software (Systat Software, Inc., San Jose, Calif.). The concentration value was calculated.
(Formazan colour is commonly taken as a measure of viable cells.)

In data set [2] the test system is HEK293T cells. The data set is described as follows: Cell viability, CCK-8 assay, HEK293T normal cells. In kind it is cell-based. As to conditions: HEK293T normal cells (FIG. 18). As to the method:
as §1

For data set [3], the system named is HepG2 cells. The data set is described as follows: Annexin V/PI flow cytometry of apoptosis, HepG2. The settings on record: for surviving tumor cells (Annexin V/PI double negative): 24 hours. In kind it is cell-based, human. As to the method:
FIG. 19 is a series of histograms representing flow cytometry analysis of TRAIL-mediated apoptosis of HepG2 cells as an analysis of in vitro TTPN-mediated apoptosis on TRAIL-sensitive-HepG2 cells. Cells were incubated for 24 hours in the presence of different concentrations of mTRAIL and TTPN and analyzed by Annexin V/PI double staining.
In addition, to investigate whether apoptosis induced by TTPN is induced by the pro-apoptosis pathway of tumor cells, fluorescence-activated cell sorting (FACS) using double staining of Annexin V/propidium iodide (PI) was performed. […] (FIG. 21).
Background: Flow cytometry measures light scatter and fluorescence of single cells or particles in a stream.

The test system of data set [4] is TRAIL receptors on the surface of HepG2 cells. The data set is described as follows: Cell binding by flow cytometry. In kind it is cell-based, human. The procedure:
TRAIL receptor expression was evaluated on various cell surfaces. Specifically, HepG2, HT29, and HEK293T cells (2×10^5) were cultured with four types of anti-human TRAIL receptor antibodies (R&D system, MAB347, MAB6311, MAB6301, MAB633). […] Nanocage bound cells were detected with an Accuri™ C6 flow cytometer (BD Biosciences) and analyzed using FlowJo_V10 software (FlowJo). The binding specificity of TTPN to TRAIL receptor was analyzed by blocking experiments by pre-culture of anti-human TRAIL receptor antibodies and cells at 4° C. for 20 minutes. […] Thereafter, the cells were fixed with 4% paraformaldehyde and stained with Hoechst 33258 before analysis for cell binding detection in a fluorescence microscope (Nikon Eclipse Ti, Nikon). Data were analyzed using LAS AF Lite software (Leica).

Data set [5] deals with HepG2 tumors. The settings on record: mouse, in vivo, iv. The procedure:
The delivery efficiency of TTPN to the tumor microenvironment was investigated by performing an in vivo biodistribution study (n=4 mice/group) of Cy5.5-labeled TTPN using the eXplore Optix System (Advanced Research Technologies Inc., USA). […] Free-Cy5.5 was separated by ultrafiltration (Amicon Ultra 100 K, Millipore), and the fluorescence intensity of the Cy5.5-labeled protein was measured using a fluorescence microplate reader (Infinite M200 Pro, TECAN, Austria). […] The fluorescence intensity of all samples was adjusted to the same value based on the data obtained using a fluorescence microplate reader. To analyze the fluorescence intensity of tumors, the Analysis Workstation software (Advanced Research Technologies Inc.) was used to calculate total photons per […] per steradian (p/s/cm^2/sr) in the region of interest (ROI). At 24 hours post-injection, the mice were sacrificed, and tumors and major organs including liver, lung, spleen, kidney and heart were excised and analyzed in the same manner as described above.

The test system of data set [6] is HepG2 tumor. The data set is described as follows: Antitumor efficacy, HepG2 xenograft. In kind it is in vivo, mouse. The source says: In the evaluation of the anti-tumor effect of the present invention, BALB/c nude male mice (6-7 weeks old) were used as an animal model. Particularly, HT29 cells (5×10^6) and HepG2 cells (5×10^6) were subcutaneously inoculated into the left dorsal flank of BALB/c nude mice, respectively. After a volume of tumors reached ˜80-100 mm^3, mice were randomly divided into the 14 following five treatment groups (6 mice/group); DOX-TTPNs, DOX-FTNs, free DOX, empty TTPNs, and buffer. Mice were intravenously injected five times, once every 2 days, and volume of tumors was determined as 1/2(Length×Width^2). Apoptotic cell death in tumor tissues was analyzed using TUNEL staining (In situ Cell Death Detection kit; Roche), and cells were stained with DAPI (4′,6-diamidino-2-phenylindole), as previously described (Kih et al., Biomaterials 180: 67-77, 2018). Apoptotic cells were visualized under a Nikon Eclipse Ti microscope (Nikon) and quantified as the number of TUNEL-positive cells per total number of cells using ImageJ software. After 21 days from injecting tumor cells, tumor tissues were excised from the experimental mice, and cryo-sections (3.5 μm) were fixed with 10% neutral buffered formalin and paraffin-embedded tissue blocks.
In addition, to investigate whether tumor growth inhibition by TTPN is induced by apoptosis-inducing activity on tumor cells, tumor tissues from the treated mice were analyzed. On the 15th day after the first injection, mice were euthanized, and apoptosis of tumor tissues was analyzed using terminal deoxynucleotidyl transferase dUTP nick end labeling (TUNEL) staining.

Data set [7] deals with DR5. In words: Western blot time course of DR5 levels in HT29. In kind it is cell-based, human. As to conditions: HT29, 4, 12 and 24 hours. On the technique in general: In western blotting, separated proteins are transferred to a membrane and probed.
Data set [8] relates to HT29 tumor. The data set is described as follows: Antitumor efficacy, HT29 xenograft. In kind it is in vivo, mouse. As to conditions: i.v. five times every 2 days, DOX-TTPNs 30 mg/kg, DOX 0.4 mg/kg, DOX-FTNs 15 mg/kg, empty TTPNs 30 mg/kg.
Protocol: To this end, HT29 cells were implanted in mice, and after tumor volumes reached approximately 80˜100 mm^3, mice were intravenously injected with 30 mg/kg of DOX-TTPNs (equivalent to a DOX dose of 0.4 mg/kg), 0.4 mg/kg of DOX, 15 mg/kg of DOX-FTNs (equivalent to the number of moles of ferritin in a dose of TTPNs), or 30 mg/kg of empty TTPNs (equivalent to the number of moles of TRAIL in a dose of TTPNs) five times every 2 days, respectively.
Data set [9] concerns HT29 tumor. In words: TUNEL analysis of HT29 tumor tissue. In kind it is in vivo, mouse. As to conditions: HT29 tumor tissue at the end of the study.
Data set [10] is described as follows: Dynamic light scattering (DLS) size. In kind it is physicochemical.
Data set [11] can be described thus: Transmission electron microscopy (TEM) size. In kind it is physicochemical. As to the method:
TEM analyses of TTPN and wtFTN were imaged by bio transmission electron microscopy (Hitachi). […] The hydrodynamic sizes of TTPN-DOX and TTPN were analyzed by dynamic light scattering (DLS) using a Zetasizer Nano ZS system (Malvern Instruments, Ltd., UK), as previously described (Zidi et al., Med. Oncol. 2010, 27(2): 185-198, 2010).

For data set [12] the following is noted: over 1 month (Kih et al.); cited from earlier work.

On to “TTPN: protein nanocage presenting TRAIL as natural-like homo-trimers; TRAIL 95-281 fused by linker peptide to human ferritin heavy chain”, for which the “apoptosis” value in data set [1] was “concentration-dependent apoptosis”; in [2], “low apoptosis rate”. Further, the “surviving tumor cells (Annexin V/PI double negative)” value in data set [3] (HepG2, 0.4 nM) is listed as 83.5%; in data set [3] (HepG2, 100 nM), 12.0%. In addition, in data set [3] (HepG2, 24 hours (FIG. 20)), the “concentration at which Annexin V-positive cells were detected” value is recorded as 0.4 nM. The “binding on the surface of HepG2 cells” value in data set [4] (400 nM, 4° C., 20 minutes) is recorded as “greater effect than wtFTN”. The “binding after pre-incubation with four anti-TRAIL receptor antibodies” value in [4] (HepG2, 400 nM) is “reduced”. For the same substance, in data set [5], the “fluorescence intensity of tumors” value was “higher than that of wtFTN and mTRAIL”. Besides, the “tumor volume inhibition relative to mTRAIL” value in [6] is on record as 3.1 times. Moreover, in data set [6] (i.v. every 2 days, TTPN 23 mg/kg, mTRAIL 12 mg/kg), the “inhibition of tumor volume” value turned out to be 80.52%. The “DR5 expression levels over time” value in data set [7] is “no significant change”. Also, the “decrease of tumor volumes” value in data set [8] was “no significant tumor-inhibition effect”. Besides, the TUNEL-positive tumor cells in [9] worked out at 0.01%. Besides, the “average size (DLS)” value in [10] stood at 25.85 nm. Moreover, the “average size (TEM)” value in data set [11] was 24-28 nm. In addition, the stability entry in [12] is “more than 90%”.
